# Like-named read-outs stand apart in the source and are kept apart here.
# Tests used:
# U373.eGFP.FFLuc cells = assay: Coculture of U373.eGFP.FFLuc tumor cells with T cells with or without TMZ, tumor killing by fluorescence microscopy; assay type: cell-based; conditions: TMZ with non-transduced (NT) T cells
# Procedure: Tumor killing was evaluated by fluorescence microscopy.
# Both TMZ and HER2.CAR T cells have anti-GBM activity on their own; however, it is unknown whether combining the agents provides additional benefit.
# HER2.CAR T cells = assay: Expansion of HER2.CAR T cells with IL-2 under repeated TMZ treatment (cell counts every three days); assay type: cell-based; conditions: 100 μM TMZ, retreated every three days, 100 U/ml IL-2; n=4 donors; p<0.05
# Procedure: 1×10^6 HER2.CAR T cells were plated on day 1 with 100 U/ml of IL-2 and treated with 100 μM TMZ. Every three days, the T cells were counted, given fresh IL-2, and retreated with TMZ.
# To do this, 1×10^6 HER2.CAR T cells were plated with 100 U/ml of IL-2 and treated with 100 μM TMZ (day 1). Every three days, the T cells were counted, given fresh IL-2, and re-treated with TMZ.
# [1] = system: glioblastoma multiforme (GBM); conditions: cited from earlier work; for median overall survival: GBM patients receiving TMZ
smiles,measurement,setting,value
"Cn1nnc2c(C(N)=O)ncn2c1=O [TMZ, 3-methyl-4-oxo-3H,4H-imidazo[4,3-d][1,2,3,5]tetrazine-8-carboxamide]",antitumor activity / tumor killing,U373.eGFP.FFLuc cells,limited antitumor activity
same,effect of TMZ on T-cell expansion,HER2.CAR T cells,effectively prevented T-cell expansion
same,median overall survival,[1]; methylated MGMT promoters,21.7 months
same,median overall survival,[1]; unmethylated MGMT promoters,12.7 months
same,overall survival,"[1]; phase III trial, TMZ with radiation therapy vs. radiotherapy alone, GBM patients",significantly improve the overall survival
